Data from patent US11672775B2, “Treprostinil prodrugs” (United Therapeutics Corporation, priority 2016, dated 2023).
Values after ≈ are worked out from the molar mass of the structure shown. “Also recorded” adds a separate entry of the source.

Assays:
Sprague Dawley rats [1] = test: Rat intraplantar injection model, clinical observation score (Example 9); type: in vivo, Sprague Dawley rat; conditions: for clinical score: 15 min; for clinical score vs similar doses of treprostinil: both doses
Method: (§1) Male Sprague Dawley rats (n=112) were allocated into 14 groups of 8/group. The study was run in 2 cycles, on consecutive days, 7 groups per cycle. Each cycle was composed of a Saline group, PBS group, which served as the control, and also treprostinil at a dose of 100 μg/mL or 1 μg/mL.
(§2) Animals were administered 0.1 mL of test material by subcutaneous injection into the paw pad (Intraplantar injection) at time zero. Animals were subsequently evaluated for their response to mechanical (von Frey filaments) and thermal stimuli, 15 and 90 minutes post-injection. The von Frey test was conducted prior to the thermal test, which followed immediately within minutes for each animal. In addition, clinical observation scoring of the animal's reaction to injection was conducted. FIG. 16 schematically illustrates the study design.
A Clinical observation score was assigned by assessing for redness, swelling and paw placement.

Sprague Dawley rats [2] = test: Rat intraplantar injection model, von Frey test (Example 9); type: in vivo, Sprague Dawley rat; conditions: for sensitivity to mechanical stimulation vs similar doses of treprostinil: both doses
Method: as §1, §2
Mechanical pain sensitivity was tested using the von Frey test, which measures the withdrawal force threshold of the animals. The lower the force applied represents a greater sensitivity to the stimulus. The von Frey test was performed 15 and 90 minutes post-Test Item injection.

[3] = Solution stability in vehicle (UPLC area %); type: physicochemical; conditions: for T0 Residual Treprostinil / Solution stability, T0 Purity: 20 mM sodium phosphate dibasic with 125 mM sodium chloride; for Solution stability, T0 Purity: ambient; for T24 Residual Treprostinil / T72 Residual Treprostinil / Solution stability, T24 hours Purity / Solution stability, T72 hours Purity: same vehicle
Method: (§3) Each prodrug was dissolved in a vehicle containing 20 mM sodium phosphate dibasic with 125 mM sodium chloride. Prodrugs were prepared at saturation concentrations by weighing 15-30 mg of prodrug in to a 4 mL clear glass vial and dissolving in an appropriate volume of vehicle (0.5-1.0 mL) to achieve a nominal saturation concentration of 30 mg/mL. The solutions were mixed for 23 hours on a rotating mixer. […] The resultant supernatant solutions were isolated from undissolved prodrug by centrifugation at 15000 RPM for 15 min. Supernatants were transferred to clear glass vials and stored at ambient temperature. […] The resultant samples were assayed against treprostinil to determine prodrug concentration. At each testing interval (0, 24, 72 hours) the supernatant was assayed for prodrug concentration and purity by area %.

Sprague Dawley rats [4] = test: Rat intraplantar injection model, thermal pain sensitivity (Example 9); type: in vivo, Sprague Dawley rat; conditions: both doses (1 and 100 μg/mL); both time points
Method: as §1, §2
The sensitivity of animals to a thermal pain stimulus was assessed immediately following the von Frey test. The time until withdrawal of the right-injected leg from a heat source was measured, and the lower (faster) the time of response represents a greater sensitivity to the stimulus. The test was performed 15 and 90 minutes post-Test Item injection.

[5] = Equilibrium solubility in vehicle; type: physicochemical; conditions: 20 mM sodium phosphate dibasic with 125 mM sodium chloride; for solubility thermodynamic at 23 h: read-out: Equilibrium solubility, T0 hours Concentration; for solubility thermodynamic at 24 h: read-out: Equilibrium solubility, T24 hours Concentration; for solubility thermodynamic at 72 h: read-out: Equilibrium solubility, T72 hours Concentration
Method: as §3

[6] = Stability in 200 mM potassium phosphate buffer (pH 7.4); type: physicochemical; conditions: 1 μM
Method: According to the earlier aqueous solution stability study, all prodrugs are stable in 20 mM Sodium Phosphate dibasic with 125 mM NaCl at saturation concentrations (3-30 mg/ml). Also, in the method development work, it was also observed that the most unstable prodrugs III, IV and XIV were stable in 200 mM potassium phosphate buffer (pH 7.4) at a low concentration of 1 μM.

[7] = 100 μg/mL (cycle 1), 90 minutes post-injection
[8] = only the 1 μg/mL dose, both time points
[9] = 1 μg/mL or 100 μg/mL, 15 and 90 minutes post-injection
[10] = aqueous buffer, thermodynamic from solid, T0 hours
[11] = aqueous buffer, thermodynamic from solid, T24 hours
[12] = aqueous buffer, thermodynamic from solid, T72 hours

Compound	clinical score (Sprague Dawley rats [1]; 100 μg/mL (cycle 1))	T0 Residual Treprostinil [3] [% Area]	Solution stability, T0 Purity [3] [% Area]	T24 Residual Treprostinil [3] [% Area]	T72 Residual Treprostinil [3] [% Area]	Solution stability, T24 hours Purity [3] [% Area]	Solution stability, T72 hours Purity [3] [% Area]	solubility thermodynamic at 23 h [5, 10] [mg/mL]	solubility thermodynamic at 24 h [5, 11] [mg/mL]	solubility thermodynamic at 72 h [5, 12] [mg/mL]	further results
CCCCC[C@H](O)CC[C@@H]1[C@H]2Cc3cccc(OCC(=O)O)c3C[C@H]2C[C@H]1OC(=O)N(C)C [Prodrug I, treprostinil ring carbamate]	non-zero	–	–	–	–	–	–	–	–	–	clinical score vs PBS group (Sprague Dawley rats [1]; [7]): non-zero; also recorded: statistically significant increase in the clinical score; clinical score vs similar dose of treprostinil (Sprague Dawley rats [1]; [8]): reduced clinical score; von Frey withdrawal force threshold vs PBS-treated group (Sprague Dawley rats [2]; 1 μg/mL, both time points post-injection): no statistically significant difference; von Frey withdrawal force threshold vs PBS-treated group (Sprague Dawley rats [2]; 100 μg/mL, 15 minutes post-injection): no statistically significant difference; von Frey withdrawal force threshold vs PBS-treated group (Sprague Dawley rats [2]; 100 μg/mL, 90 minutes post-injection): statistically significant increased sensitivity; sensitivity to mechanical stimulation vs similar dose of treprostinil (Sprague Dawley rats [2]; [8]): reduced sensitivity
treprostinil monomethyl carbamate [Prodrug VIII]	non-zero	0.11	96.41	0.11	0.15	96.40	96.34	–	–	–	thermal paw withdrawal time vs PBS group (Sprague Dawley rats [4]): trend toward reduction in the time of response; clinical score vs PBS group (Sprague Dawley rats [1]; 100 μg/mL, both time points): not statistically significantly different; clinical score vs similar doses of treprostinil (Sprague Dawley rats [1]; both time points): reduced clinical score; Equilibrium solubility, T0 hours Concentration ([5]; T0 hours): 11.0 mg/mL; Equilibrium solubility, T24 hours Concentration ([5]; T24 hours): 10.5 mg/mL; Equilibrium solubility, T72 hours Concentration ([5]; T72 hours): 10.9 mg/mL; von Frey withdrawal force threshold vs PBS-treated group (Sprague Dawley rats [2]; [9]): no statistically significant difference; sensitivity to mechanical stimulation vs similar doses of treprostinil (Sprague Dawley rats [2]; both time points): statistically significant reduced sensitivity
CCCCC[C@H](O)CC[C@@H]1[C@H]2Cc3cccc(OCC(=O)N[C@@H](CO)C(=O)O)c3C[C@H]2C[C@H]1O [Prodrug XIII, treprostinil serine amide]	–	–	97.66	–	–	97.81	97.58	3.2 (≈ 6.7 mM)	3.7 (≈ 7.75 mM)	3.8 (≈ 7.96 mM)	solubility at 23 h ([5]; aqueous buffer, thermodynamic from solid, approximate, read-out: Solubility in the selected vehicle): ~3.5 mg/mL (≈ 7.33 mM)
CCCCC[C@H](O)CC[C@@H]1[C@H]2Cc3cccc(OCC(=O)NC(C(=O)O)C(C)C)c3C[C@H]2C[C@H]1O (stereo partly drawn) [Prodrug XI, treprostinil valine amide]	–	–	99.49	–	–	99.39	98.92	11.5 (≈ 23.5 mM)	11.3 (≈ 23.1 mM)	11.5 (≈ 23.5 mM)	–
CCCCC[C@H](O)CC[C@@H]1[C@H]2Cc3cccc(OCC(=O)NC(CC(=O)O)C(=O)O)c3C[C@H]2C[C@H]1O (stereo partly drawn) [Prodrug XII, treprostinil aspartic acid amide]	–	–	98.70	–	–	98.68	98.58	7.4 (≈ 14.6 mM)	7.5 (≈ 14.8 mM)	7.4 (≈ 14.6 mM)	–
CCCCC[C@H](O)CC[C@@H]1[C@H]2Cc3cccc(OCC(=O)O)c3C[C@H]2C[C@H]1OC(=O)OC [Prodrug III, cyclopentyl methyl carbonate of treprostinil]	–	0.15	94.48	0.14	0.15	94.31	94.61	6.1 (≈ 13.6 mM)	6 (≈ 13.4 mM)	6.2 (≈ 13.8 mM)	stability in buffer [6]: stable
CCCCC[C@@H](CC[C@@H]1[C@H]2Cc3cccc(OCC(=O)O)c3C[C@H]2C[C@H]1O)OC(=O)N(C)C [Prodrug II, treprostinil side-chain carbamate]	non-zero	–	–	–	–	–	–	–	–	–	clinical score vs PBS group (Sprague Dawley rats [1]; [7]): non-zero; clinical score vs PBS group (Sprague Dawley rats [1]; 100 μg/mL, both time points): not statistically significantly different; clinical score vs similar doses of treprostinil (Sprague Dawley rats [1]; both time points): reduced clinical score; von Frey withdrawal force threshold vs PBS-treated group (Sprague Dawley rats [2]; [9]): no statistically significant difference; sensitivity to mechanical stimulation vs similar doses of treprostinil (Sprague Dawley rats [2]; both time points): statistically significant reduced sensitivity
CCCCC[C@H](O)CC[C@@H]1[C@H]2Cc3cccc(OCC(=O)N[C@@H](C)C(=O)O)c3C[C@H]2C[C@H]1O [Prodrug X, treprostinil alanine amide]	–	0.08	96.59	0.08	0.08	96.32	96.54	10 (≈ 21.7 mM)	10.6 (≈ 23 mM)	11.3 (≈ 24.5 mM)	–
